According to US20240270821A1, “GIP/GLP1/GCG TRI-RECEPTOR AGONISTS AND USES THEREOF” (priority 2023, published 2024):
Read-outs that look alike come from different tables or passages of the source. Starred links: 1 amine or outer side, 2 acyl side, 3 side chain; linkers in the order of their positions; H or OH if unused. Non-standard residues stand in square brackets, D forms with d. Groups on a side chain read outwards from the residue. No end group written: not given here. *: point of attachment. C20 diacid = O=C(O)CCCCCCCCCCCCCCCCCCC(=O)*; C18 diacid = O=C(O)CCCCCCCCCCCCCCCCC(=O)*; αMePhe(2-F) = C[C@](N)(Cc1ccccc1F)C(=O)O; γGlu = O=C(O)[C@H](CCC(=O)[*:2])N[*:1]; αMe4Pal = C[C@](N)(Cc1ccncc1)C(=O)O; αMeY = C[C@](N)(Cc1ccc(O)cc1)C(=O)O; 4Pal = N[C@@H](Cc1ccncc1)C(=O)O; αMeL = CC(C)C[C@](C)(N)C(=O)O; αMeS = C[C@](N)(CO)C(=O)O; Orn = NCCC[C@H](N)C(=O)O; AEEA = NCCOCCOCC(=O)O; Aib = CC(C)(N)C(=O)O

How the values were obtained:
Format in all cases: cell-based
human GcgR = human GcgR (Homo sapiens, UniProt P47871); assay: Functional cAMP activity in the presence of 1% HSA
hGIPR [1] = target: T1, hGIPR (Homo sapiens, UniProt P48546); assay: Functional cAMP activity in the presence of 1% HSA; settings: read-out: cAMP Rel EC50, hGIPR
T1 sequence (P48546 22-466): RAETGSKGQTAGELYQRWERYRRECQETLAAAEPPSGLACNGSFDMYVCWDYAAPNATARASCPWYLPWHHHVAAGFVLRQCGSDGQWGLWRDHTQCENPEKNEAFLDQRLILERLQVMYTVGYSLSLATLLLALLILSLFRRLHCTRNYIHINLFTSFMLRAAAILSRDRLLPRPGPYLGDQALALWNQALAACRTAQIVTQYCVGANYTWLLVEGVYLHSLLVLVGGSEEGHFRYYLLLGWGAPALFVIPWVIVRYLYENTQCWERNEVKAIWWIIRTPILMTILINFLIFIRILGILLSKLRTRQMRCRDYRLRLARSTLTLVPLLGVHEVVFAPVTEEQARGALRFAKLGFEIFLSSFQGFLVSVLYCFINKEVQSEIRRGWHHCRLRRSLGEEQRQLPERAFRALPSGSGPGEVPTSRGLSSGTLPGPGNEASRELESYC

hGLP-1R [2] = target: T2, hGLP-1R (Homo sapiens, UniProt P43220); assay: Functional cAMP activity in the presence of 1% HSA; settings: read-out: cAMP Rel EC50, hGLP-1R
hGIPR [3] = target: T1, hGIPR; assay: Functional cAMP activation in the presence of 0.1% casein (no HSA);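 on Relative cAMP EC50, hGIPR: intracellular cAMP rise after 30 min at 37 °C read by HTRF against a standard curve, scaled between buffer alone (0%) and top control ligand concentration (100%), four-parameter fit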;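 on Relative cAMP EC50, hGLP-1R: intracellular cAMP rise after 30 min at 37 °C read by HTRF, normalized between buffer only (0%) and maximal control ligand (100%), four-parameter variable-slope fit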;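 on Relative cAMP EC50, hGcgR: intracellular cAMP rise after 30 min at 37 °C, read by HTRF against a cAMP standard curve, scaled from buffer only (0%) to maximal control ligand response (100%)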
hGLP-1R [4] = target: T2, hGLP-1R; assay: as above
hGcgR = hGcgR (Homo sapiens, UniProt P47871); assay: as above;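 further: intracellular cAMP rise after 30 min at 37 °C, read by HTRF against a cAMP standard curve, scaled from buffer only (0%) to maximal control ligand response (100%)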
[5] = in the presence of 0.1% casein (no HSA), geometric mean, read-out: Relative cAMP EC50, hGIPR
[6] = in the presence of 0.1% casein (no HSA), geometric mean, read-out: Relative cAMP EC50, hGLP-1R
[7] = in the presence of 0.1% casein (no HSA), geometric mean, read-out: Relative cAMP EC50, hGcgR

T2 sequence (P43220 24-463): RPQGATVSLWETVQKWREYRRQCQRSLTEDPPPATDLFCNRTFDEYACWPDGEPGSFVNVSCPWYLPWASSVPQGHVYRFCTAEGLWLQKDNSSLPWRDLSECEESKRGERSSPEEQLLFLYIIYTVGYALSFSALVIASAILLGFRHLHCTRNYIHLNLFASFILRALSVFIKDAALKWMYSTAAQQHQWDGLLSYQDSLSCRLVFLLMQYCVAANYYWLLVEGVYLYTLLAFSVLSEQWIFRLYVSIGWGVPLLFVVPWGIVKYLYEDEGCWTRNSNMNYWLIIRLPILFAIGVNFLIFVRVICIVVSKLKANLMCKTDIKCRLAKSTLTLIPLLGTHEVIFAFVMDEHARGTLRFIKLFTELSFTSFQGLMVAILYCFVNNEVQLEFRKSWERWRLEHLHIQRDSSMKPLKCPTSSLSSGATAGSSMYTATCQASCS
hGcgR, sequence (P47871 26-477): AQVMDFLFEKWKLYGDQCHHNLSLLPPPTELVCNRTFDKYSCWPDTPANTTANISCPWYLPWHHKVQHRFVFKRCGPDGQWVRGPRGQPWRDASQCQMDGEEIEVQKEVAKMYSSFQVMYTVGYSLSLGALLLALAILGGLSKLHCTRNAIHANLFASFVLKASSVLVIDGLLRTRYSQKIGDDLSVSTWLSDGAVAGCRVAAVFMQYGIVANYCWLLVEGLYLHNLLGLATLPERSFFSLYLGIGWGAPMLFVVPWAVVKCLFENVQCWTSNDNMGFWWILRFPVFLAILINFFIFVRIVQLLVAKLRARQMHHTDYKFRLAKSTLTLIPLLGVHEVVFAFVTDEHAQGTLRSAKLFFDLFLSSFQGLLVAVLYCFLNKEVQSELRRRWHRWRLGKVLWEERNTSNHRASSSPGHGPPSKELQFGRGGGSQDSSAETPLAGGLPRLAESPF
human GcgR, sequence (P47871 26-477): as above

Compound	EC50 (human GcgR; read-out: cAMP Rel EC50, hGcgR) [nM]	EC50 (hGIPR [1]) [nM]	EC50 (hGLP-1R [2]) [nM]	EC50 (hGIPR [3]; [5]) [nM]	EC50 (hGLP-1R [4]; [6]) [nM]	EC50 (hGcgR; [7]) [nM]	EC50 (hGIPR [3]; read-out: Relative cAMP EC50, hGIPR) [nM]	EC50 (hGLP-1R [4]; read-out: Relative cAMP EC50, hGLP-1R) [nM]	EC50 (hGcgR; read-out: Relative cAMP EC50, hGcgR) [nM]	EC50 (human GcgR) [nM]	EC50 (hGIPR [3]) [nM]	EC50 (hGLP-1R [4]) [nM]	EC50 (hGcgR) [nM]
H-Y[Aib]QGTFTSDYSI[αMeL]LDKQAAK([AEEA-AEEA-γGlu-C20 diacid])QFVEWLIA[Aib]GPSSGEPPPGEG-NH2 [Example 333]	1410	36.3	182	0.265	0.705	7.09							
Y[Aib]QGTFTSD[4Pal]SR[αMeL]LDKK([γGlu-γGlu-C18 diacid])AQ[αMe4Pal]AFIE[αMe4Pal]LIEGGPSSGAPPPSGSEE-NH2 [Example 959]	316	24.5	503	0.217	5.06	2.61							
Y[Aib]QGT[αMePhe(2-F)]TSD[4Pal]SI[αMeL]LD[Orn]K([AEEA-γGlu-C18 diacid])AQ[αMe4Pal]EFI[dE][αMeY]LIEGGPSSGEPPPSGS-NH2 [Example 644]	626	0.601	34.3				0.00649	0.309	5.91				
Y[Aib]QGTFTSDFS[Orn][αMeL]LDKK([AEEA-γGlu-C18 diacid])AQ[Aib]AFIEWLLEGGHSSGEPPPSGE-NH2 [Example 124]	567	54.7	801	0.344	6.14	2.92							
H-Y[Aib]QGT[αMePhe(2-F)]TSD[4Pal][αMeS]I[αMeL]LD[Orn]K([γGlu-γGlu-C18 diacid])AQ[αMe4Pal]EFI[dE][αMeY]LIEGGPSSGAPPPEGTGE-NH2 [Example 764]		0.649	38.8							146	0.00626	0.289	1.63
CC[C@H](C)[C@H](NC(=O)[C@H](CC(C)C)NC(=O)[C@](C)(Cc1ccc(O)cc1)NC(=O)[C@H](CCC(=O)O)NC(=O)[C@@H](NC(=O)[C@H](Cc1ccccc1)NC(=O)[C@H](CCC(N)=O)NC(=O)[C@](C)(Cc1ccncc1)NC(=O)[C@H](CCC(N)=O)NC(=O)[C@H](C)NC(=O)[C@H](CCCCNC(=O)COCCOCCNC(=O)CC[C@H](NC(=O)CCCCCCCCCCCCCCCCC(=O)O)C(=O)O)NC(=O)[C@H](CCCN)NC(=O)[C@H](CC(=O)O)NC(=O)[C@H](CC(C)C)NC(=O)[C@](C)(CC(C)C)NC(=O)[C@H](CCC(N)=O)NC(=O)[C@H](CO)NC(=O)[C@H](Cc1ccncc1)NC(=O)[C@H](CC(=O)O)NC(=O)[C@H](CO)NC(=O)[C@@H](NC(=O)[C@H](Cc1ccccc1)NC(=O)[C@@H](NC(=O)CNC(=O)[C@H](CCC(N)=O)NC(=O)C(C)(C)NC(=O)[C@@H](N)Cc1ccc(O)cc1)[C@@H](C)O)[C@@H](C)O)[C@@H](C)CC)C(=O)N[C@@H](CCC(=O)O)C(=O)NC(C)(C)C(=O)NCC(=O)N1CCC[C@H]1C(=O)N[C@@H](CO)C(=O)N[C@@H](CO)C(=O)NCC(=O)N[C@@H](C)C(=O)N1CCC[C@H]1C(=O)N1CCC[C@H]1C(=O)N1CCC[C@H]1C(=O)N[C@@H](CO)C(=O)NCC(=O)N[C@@H](CO)C(=O)N[C@@H](CCC(=O)O)C(=O)N[C@@H](CCC(=O)O)C(N)=O [Example 1109]	510	20.2	102	0.0626	2.3	10.8							
H-Y[Aib]QGT[αMePhe(2-F)]TSD[4Pal][αMeS]I[αMeL]LD[Orn]K([AEEA-γGlu-C18 diacid])AQ[αMe4Pal]EFI[dE][αMeY]LVEGGPSSGEPPPEGE-NH2 [Example 1159]	238	1.29	64.1	0.0118	0.45	1.86							
H-Y[Aib]QGTFTSDYSI[αMeL]LDKIAAK([AEEA-AEEA-γGlu-C20 diacid])QFVEWLLA[Aib]GPSSGEPPPSEG-NH2 [Example 324]	1410	20.7	1060	0.164	4.4	5.74							
